For one experiment, the target named is T1, FadE1 (Pseudomonas aeruginosa, UniProt Q9I612).
T1 construct: gene PA0506; full-length ORF, His6 tag removed by TEV
Nature of the experiment: X-ray crystal structure, […] Å. It counts as binding.

The next experiment concerns the target T2, FadE2 (Pseudomonas aeruginosa, UniProt Q9I610).
T2 construct: gene PA0508; full-length ORF, His6 tag removed by TEV
Nature of the experiment: X-ray crystal structure, […] Å. Format: binding.

T2 sequence (Q9I610 entry or part of it): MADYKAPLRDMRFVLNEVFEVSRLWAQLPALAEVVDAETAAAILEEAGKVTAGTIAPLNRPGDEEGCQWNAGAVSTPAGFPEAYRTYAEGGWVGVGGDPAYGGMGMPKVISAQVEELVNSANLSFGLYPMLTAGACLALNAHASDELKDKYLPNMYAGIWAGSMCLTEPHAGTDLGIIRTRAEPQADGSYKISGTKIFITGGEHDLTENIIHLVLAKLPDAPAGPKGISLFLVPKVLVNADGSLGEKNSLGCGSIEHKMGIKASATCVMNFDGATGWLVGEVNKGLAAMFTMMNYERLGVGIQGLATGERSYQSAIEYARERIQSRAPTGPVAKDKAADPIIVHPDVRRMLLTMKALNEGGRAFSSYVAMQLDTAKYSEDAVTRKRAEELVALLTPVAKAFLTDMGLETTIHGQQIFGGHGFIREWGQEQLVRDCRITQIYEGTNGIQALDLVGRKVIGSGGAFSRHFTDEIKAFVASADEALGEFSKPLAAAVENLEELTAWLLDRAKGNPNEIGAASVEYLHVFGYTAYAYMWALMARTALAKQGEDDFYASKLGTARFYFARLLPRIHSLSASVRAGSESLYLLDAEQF
T1 sequence (Q9I612 entry or part of it): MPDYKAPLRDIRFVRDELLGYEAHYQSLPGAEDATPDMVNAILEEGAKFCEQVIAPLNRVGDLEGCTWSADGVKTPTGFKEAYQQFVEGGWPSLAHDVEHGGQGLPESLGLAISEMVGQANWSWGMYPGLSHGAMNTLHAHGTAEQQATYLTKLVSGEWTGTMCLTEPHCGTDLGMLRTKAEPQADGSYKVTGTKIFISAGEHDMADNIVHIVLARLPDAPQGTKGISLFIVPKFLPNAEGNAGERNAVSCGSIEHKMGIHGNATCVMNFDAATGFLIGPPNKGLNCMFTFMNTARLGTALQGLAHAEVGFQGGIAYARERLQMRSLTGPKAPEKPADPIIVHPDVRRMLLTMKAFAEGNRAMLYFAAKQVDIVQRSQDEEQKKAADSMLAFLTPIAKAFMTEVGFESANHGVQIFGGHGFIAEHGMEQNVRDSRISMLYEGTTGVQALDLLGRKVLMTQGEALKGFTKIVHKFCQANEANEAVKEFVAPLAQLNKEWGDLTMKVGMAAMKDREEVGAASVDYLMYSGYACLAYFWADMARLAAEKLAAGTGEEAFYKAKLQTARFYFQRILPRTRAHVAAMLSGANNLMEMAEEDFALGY

As to `Cc1cc2nc3c(=O)[nH]c(=O)nc-3n(C[C@H](O)[C@H](O)[C@H](O)COP(=O)(O)OP(=O)(O)OC[C@H]3O[C@@H](n4cnc5c(N)ncnc54)[C@H](O)[C@@H]3O)c2cc1C` [FAD], the “X-ray crystal structure, 2.08 Å” value on FadE1 is “One FAD molecule was bound in each protomer of FadE1 and FadE2”. Also, the “X-ray crystal structure, 1.94 Å” value at FadE2 is “One FAD molecule was bound in each protomer of FadE1 and FadE2”.

The record behind these values is article PMC11890623, “Pseudomonas aeruginosa acyl-CoA dehydrogenases and structure-guided inversion of their substrate specificity” (Nature Communications, 2025).
